Patent US20050124624A1, “4-(4-methylpiperazin-1-ylmethyl)-n-[4-methyl-3-(4-pyridin-3-yl)pyrimidin-2-yl-amino)phenyl]-benzamide for threating ang ii-mediated diseases” (priority 2002, published 2005)

Legend:
[1] = system: Transforming growth factor-β1 (TGF-β1); assay: Quantitative real-time RT-PCR of mesenteric vessel TGF-β1 gene expression; format: in vivo, Sprague Dawley rats; conditions: mesenteric vessel mRNA, compared with untreated counterparts also subjected to angiotensin II-infusion
Method: (§1) Rats were randomized to receive minipumps filled vehicle (0.15 M NaCl, 1 mmol/l acetic acid) either with or without angiotensin II (58 ng/min), as previously described (Cao Z et col. Kidney Int 58:2437-2451, 2000).
(§2) RNA Extraction and cDNA synthesis Frozen mesenteric vascular tissue, stored at −80° C. was homogenized (Ultra-Turrax, Janke and Kunkel, Staufen, Germany) and total RNA was isolated by the acid guanidinium thiocyanate-phenol-chloroform extraction method (Chomczynski P, Sacchi N; Anal Biochem 162:156-159,1987). The purified RNA was dissolved in sterile water, quantified spectrophotometrically and its concentration adjusted to 1 μg/μl. […]
(§3) Quantitative Real Time RT-PCR: Transforming growth factor-β1 (TGF-β1) and platelet-derived growth factor (PDGF) gene expression was quantified by real-time RT-PCR using sequence specific primers as previously reported by our group (Ahola H, et col.; American Journal of Pathology 155:907-913,1999). […] Both probes included a fluorescence reporter (6-carboxyfluorescein [FAM]) at the 5′-end and a fluorescent quencher (6-carboxytetramethylrhodamine [TAMRA]) at the 3′-end. For the relative quantification of the target gene and the endogenous reference 18S ribosomal RNA (18S), real-time quantitative RT-PCR was performed using an GeneAmp 5700 Sequence Detector (PE Biosystems, Foster City, Calif.) according to the manufacturer's instructions. […]

[2] = system: angiotensin II-infused rats; assay: Angiotensin II infusion in rats: systolic blood pressure and mesenteric vessel weight; conditions: 60 mg/kg daily gavage, 12 days
[3] = system: platelet-derived growth factor (PDGF); assay: Quantitative real-time RT-PCR of mesenteric vessel PDGF gene expression; format: in vivo, Sprague Dawley rats; conditions: mesenteric vessel mRNA, angiotensin II infused animals
Method: as §1, §2, §3

mesenteric vessels = assay: Histomorphometry of mesenteric vessels (media wall:lumen ratio, trichrome ECM) in angiotensin II-infused rats; format: in vivo, Sprague Dawley rats
Method: as §1
Histochemistry and immunohistochemistry: Histological studies of vascular architecture were performed in a subset of animals (n=8/group). Animals in this subgroup were anesthetized with pentobarbital sodium (Nembutal, Bomac Laboratories, Asquith, Australia) and vessels were perfused at arterial pressure with 10% neutral buffered formalin via an intra-aortic cannula. Tissues were then prepared as previously described (Cooper M E et col.; Diabetes 43:1221-1228,1994). In brief, mesenteric vessels were placed in ice cold phosphate buffer where fat, connective tissue and veins were removed by blunt dissection. The resultant vessel preparation was then embedded in paraffin. Sections were then either histochemically or immunohistochemically stained. […]
Quantification of histopathology: The proportion of vessel wall occupied by the media was identified by immunolabelling for α-smooth muscle actinand the ratio of the wall:lumen quantified using of a video-imaging system (Video Pro 32, Leading Edge, Bedford Park, South Australia, Australia), connected to a light microscope (Zeiss, Oberkocken, Germany) with photographic attachment (Axiophot, Zeiss, Oberkocken, Germany). Using this device, the media (areas stained with the anti-actin antibody) and corresponding lumenal areas were determined in a median of 20 (range 10-35) vessels per animal and expressed as wall:lumen ratio, as previously described in other models of vascular hypertrophy (Kakinuma Yet col.; Kidney Int 42:46-55., 1992).
Quantification of ECM was performed on trichrome-stained sections by calculating the proportion of area occupied by ECM using computer-assisted image analysis as previously described (Lehr H A, et col. J Histochem Cytochem 45:1559-1565, 1997). […]

[4] = trichrome stained sections, 60 mg/kg daily

`Cc1ccc(NC(=O)c2ccc(CN3CCN(C)CC3)cc2)cc1Nc1nccc(-c2cccnc2)n1` [Imatinib, N-{5-[4-(4-methyl-piperazino-methyl)-benzoylamido]-2-methylphenyl}-4-(3-pyridyl)-2-pyrimidine-amine] was tested, and the TGF-β expression [1] was “further increase”, the systolic blood pressure ([2]; angiotensin II (58 ng/min) infused rats, tail-cuff, mean±SE, stated as no effect) was 205±10 mmHg and the mesenteric weight ([2]; animals receiving angiotensin II, p<0.001, significantly reduced) was 42 mg. The PDGF gene expression [3] was “unaffected”, the “media wall:lumen ratio” value (mesenteric vessels; 60 mg/kg daily gavage, 12 days, p<0.001) was 0.4 and the “extent of ECM expansion” value (mesenteric vessels; [4]) was “significantly reduced”. For the same molecule, the media hypertrophy (mesenteric vessels; [4]) was “significantly reduced”.
